Consider five compounds from patent publication US7960483B2, “Adamantane derivative, composition comprising the derivative, and optical and electronic member using the composition” (Idemitsu Kosan Co., Ltd., priority 2006, dated 2011).

A short description of data set [1]: Compatibility test with bisphenol A (BPA) epoxy resin. The class given is physicochemical. The settings on record: 2.1 g sample + 0.9 g Epikote 828, mixed at 100-130° C., stood at room temperature; time until crystals begin precipitating. The protocol: A sample (2.1 g) and 0.9 g of a BPA epoxy resin (Epikote 828 manufactured by Japan Epoxy Resin Co., Ltd.) were heated to 100° C. to 130° C. and mixed. When a uniform mixture was confirmed to be obtained, the mixture was cooled to room temperature and allowed to quiescently stand to observe the precipitation of crystals with naked eyes and to determine the time period required for the crystals to begin precipitating. When the crystals began precipitating within 0 to 2 days, the evaluation was rated “C”. When 3 to 6 days were required, the evaluation was rated “B”. When no crystals were precipitated even when 7 days had passed, the evaluation was rated “A”.

A short description of data set [2]: Solubility test in cyclohexanone. The settings on record: saturation solubility at room temperature, liquid chromatography, about 3 days.
Description: To 2 g of a sample 1 g of cyclohexanone was added. The mixture was heated to 80° C. to dissolve the sample and cooled to room temperature. Then seed crystals were added thereto and stirred. The solubility (unit: % by mass) of the sample in the solution was measured by liquid chromatography. Such stirring and measurement by liquid chromatography procedures were repeated for about 3 days. The saturation solubility represents the solubility value at which the measured solubility no longer changed.

On to “1,3-bis(glycidyloxyphenyl)adamantane [BP13-EPO, reference compound]”, for which the “Compatibility with BPA type epoxy resin” value in data set [1] is “C (When the crystals began precipitating within 0 to 2 days, the evaluation was rated “C”)”.
Regarding `c1cc(OCC2CO2)c(C2CCCCC2)cc1C12CC3CC(C1)CC(c1ccc(OCC4CO4)c(C4CCCCC4)c1)(C3)C2` (stereo not drawn) [BCHP13-EPO, 1,3-bis(4-glycidyloxy-3-cyclohexylphenyl)adamantane], the Solubility in cyclohexanone in data set [2] is recorded as 46 % by mass. Further, the “Compatibility with BPA type epoxy resin” value in data set [1] is on record as “A (When no crystals were precipitated even when 7 days had passed, the evaluation was rated “A”)”.
In turn, `Cc1cc(C23CC4CC(C2)CC(c2cc(C)c(OCC5CO5)c(C)c2)(C4)C3)cc(C)c1OCC1CO1` (stereo not drawn) [BDMP13-EPO, 1,3-bis(4-glycidyloxy-3,5-dimethylphenyl)adamantane] registered a Solubility in cyclohexanone in data set [2] of 35 % by mass. In addition, the “Compatibility with BPA type epoxy resin” value in data set [1] is “A (When no crystals were precipitated even when 7 days had passed, the evaluation was rated “A”)”.
In the case of `Cc1cc(C2(c3cc(C)c(OCC4CO4)c(C)c3)C3CC4CC(C3)CC2C4)cc(C)c1OCC1CO1` (stereo not drawn) [BDMP22-EPO, 2,2-bis(4-glycidyloxy-3,5-dimethylphenyl)adamantane], the Solubility in cyclohexanone in data set [2] is recorded as 32 % by mass. In data set [1], the “Compatibility with BPA type epoxy resin” value is “B (When 3 to 6 days were required, the evaluation was rated “B”)”.
The compound `Cc1cc(C23CC4CC(C2)CC(c2ccc(OCC5CO5)c(C)c2)(C4)C3)ccc1OCC1CO1` (stereo not drawn) [BMP13-EPO, 1,3-bis(4-glycidyloxy-3-methylphenyl)adamantane] came in with a Solubility in cyclohexanone in data set [2] of 33 % by mass. The “Compatibility with BPA type epoxy resin” value in data set [1] is “B (When 3 to 6 days were required, the evaluation was rated “B”)”.
